# In PubChem BioAssay AID1963827 (Molecular Pharmacology Branch, DTP, NCI, 2024):
# System: 994946-033-R-J1-PDC complex spheroid viability
# Assay: Anticancer human tumor 994946-033-R-J1-PDC patient-derived melanoma cell line growth inhibition [POLQ]
# Settings: for IC50: curve of first compound; for viability, T/C: stronger effect = lower value
# Procedure, shortened: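 PDC + HUVEC + MSC complex spheroids; POLQ inhibitors ± partner drugs; top conc. at/near clinical Cmax, else 10 microM (SN-38 1 microM), half-log dilutions; 37 degrees C, 5% CO2.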
# [1] = second compound 0.0316 µM, first compound 0.0316 µM
# [2] = second compound 0.0316 µM, first compound 0.1 µM
# [3] = second compound 0.0316 µM, first compound 0.316 µM
# [4] = second compound 0.0316 µM, first compound 1 µM
# [5] = second compound 0.0316 µM, first compound 3.16 µM
# [6] = second compound 0.0316 µM, first compound 10 µM
# [7] = second compound 0.1 µM, first compound 0.0316 µM
# [8] = second compound 0.1 µM, first compound 0.1 µM
# [9] = second compound 0.1 µM, first compound 0.316 µM
# [10] = second compound 0.1 µM, first compound 1 µM
# [11] = second compound 0.1 µM, first compound 3.16 µM
# [12] = second compound 0.1 µM, first compound 10 µM
# [13] = second compound 0.316 µM, first compound 0.0316 µM
# [14] = second compound 0.316 µM, first compound 0.1 µM
# [15] = second compound 0.316 µM, first compound 0.316 µM
# [16] = second compound 0.316 µM, first compound 1 µM
# [17] = second compound 0.316 µM, first compound 3.16 µM
# [18] = second compound 0.316 µM, first compound 10 µM
# [19] = second compound 1 µM, first compound 0.0316 µM
# [20] = second compound 1 µM, first compound 0.1 µM
# [21] = second compound 1 µM, first compound 0.316 µM
# [22] = second compound 1 µM, first compound 1 µM
# [23] = second compound 1 µM, first compound 3.16 µM
# [24] = second compound 1 µM, first compound 10 µM
# [25] = second compound 3.16 µM, first compound 0.0316 µM
# [26] = second compound 3.16 µM, first compound 0.1 µM
# [27] = second compound 3.16 µM, first compound 0.316 µM
# [28] = second compound 3.16 µM, first compound 1 µM
# [29] = second compound 3.16 µM, first compound 3.16 µM
# [30] = second compound 3.16 µM, first compound 10 µM
# [31] = second compound 10 µM, first compound 0.0316 µM
# [32] = second compound 10 µM, first compound 0.1 µM
# [33] = second compound 10 µM, first compound 0.316 µM
# [34] = second compound 10 µM, first compound 1 µM
# [35] = second compound 10 µM, first compound 3.16 µM
# [36] = second compound 10 µM, first compound 10 µM
# [37] = second compound 0.0316 µM, first compound 0.00316 µM
# [38] = second compound 0.0316 µM, first compound 0.01 µM
# [39] = second compound 0.1 µM, first compound 0.00316 µM
# [40] = second compound 0.1 µM, first compound 0.01 µM
# [41] = second compound 0.316 µM, first compound 0.00316 µM
# [42] = second compound 0.316 µM, first compound 0.01 µM
# [43] = second compound 1 µM, first compound 0.00316 µM
# [44] = second compound 1 µM, first compound 0.01 µM
# [45] = second compound 3.16 µM, first compound 0.00316 µM
# [46] = second compound 3.16 µM, first compound 0.01 µM
# [47] = second compound 10 µM, first compound 0.00316 µM
# [48] = second compound 10 µM, first compound 0.01 µM
# 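Also: spheroids exposed to drugs for 7 days.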
# 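For viability, T/C in this document: 100% = DMSO vehicle treated spheroids.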
structure (smiles),measurement,setting,value
C#Cc1c(F)ccc2cc(O)cc(-c3ncc4c(N5CC6CCC(C5)N6)nc(OCC56CCCN5CC(F)C6)nc4c3F)c12 (stereo not drawn) + Nc1ccc(C#CCN(C(=O)Cc2ncc(C(F)(F)F)cc2C(F)(F)F)c2ccc(F)cc2)nn1,IC50,second compound 0.0316 µM,4.28 µM
same,IC50,second compound 0.1 µM,5.46 µM
same,IC50,second compound 0.316 µM,5.99 µM
same,IC50,second compound 1 µM,3.66 µM
same,IC50,second compound 3.16 µM,5.38 µM
same,IC50,second compound 10 µM,5.09 µM
same,"viability, T/C",[1],101%
same,"viability, T/C",[2],109%
same,"viability, T/C",[3],91.9%
same,"viability, T/C",[4],82.5%
same,"viability, T/C",[5],67.2%
same,"viability, T/C",[6],11.7%
same,"viability, T/C",[7],90.2%
same,"viability, T/C",[8],88.9%
same,"viability, T/C",[9],97.8%
same,"viability, T/C",[10],74.1%
same,"viability, T/C",[11],81%
same,"viability, T/C",[12],19.1%
same,"viability, T/C",[13],100%
same,"viability, T/C",[14],84.7%
same,"viability, T/C",[15],74.8%
same,"viability, T/C",[16],96.2%
same,"viability, T/C",[17],84.1%
same,"viability, T/C",[18],22.3%
same,"viability, T/C",[19],80.6%
same,"viability, T/C",[20],89.8%
same,"viability, T/C",[21],90.1%
same,"viability, T/C",[22],66.5%
same,"viability, T/C",[23],59.8%
same,"viability, T/C",[24],5.38%
same,"viability, T/C",[25],74.4%
same,"viability, T/C",[26],85.1%
same,"viability, T/C",[27],102%
same,"viability, T/C",[28],79.1%
same,"viability, T/C",[29],81.1%
same,"viability, T/C",[30],13.7%
same,"viability, T/C",[31],80%
same,"viability, T/C",[32],106%
same,"viability, T/C",[33],76.2%
same,"viability, T/C",[34],112%
same,"viability, T/C",[35],71%
same,"viability, T/C",[36],20.3%
CC(C)n1c(=O)n(C)c2cnc3cc(F)c(-c4ccc(OCCCN5CCCCC5)nc4)cc3c21 + Nc1ccc(C#CCN(C(=O)Cc2ncc(C(F)(F)F)cc2C(F)(F)F)c2ccc(F)cc2)nn1,IC50,second compound 0.0316 µM,> 10 µM
same,IC50,second compound 0.1 µM,> 10 µM
same,IC50,second compound 0.316 µM,> 10 µM
same,IC50,second compound 1 µM,8.97 µM
same,IC50,second compound 3.16 µM,8.25 µM
same,IC50,second compound 10 µM,> 10 µM
same,"viability, T/C",[1],82.2%
same,"viability, T/C",[2],103%
same,"viability, T/C",[3],80.6%
same,"viability, T/C",[4],98.5%
same,"viability, T/C",[5],83.5%
same,"viability, T/C",[6],66.4%
same,"viability, T/C",[7],113%
same,"viability, T/C",[8],95.3%
same,"viability, T/C",[9],52.7%
same,"viability, T/C",[10],84.7%
same,"viability, T/C",[11],77.5%
same,"viability, T/C",[12],67.5%
same,"viability, T/C",[13],88.9%
same,"viability, T/C",[14],80.9%
same,"viability, T/C",[15],94.7%
same,"viability, T/C",[16],101%
same,"viability, T/C",[17],68.9%
same,"viability, T/C",[18],59.6%
same,"viability, T/C",[19],76.5%
same,"viability, T/C",[20],103%
same,"viability, T/C",[21],98%
same,"viability, T/C",[22],88.8%
same,"viability, T/C",[23],93.6%
same,"viability, T/C",[24],45.6%
same,"viability, T/C",[25],96.6%
same,"viability, T/C",[26],97.7%
same,"viability, T/C",[27],97.6%
same,"viability, T/C",[28],115%
same,"viability, T/C",[29],85%
same,"viability, T/C",[30],43%
same,"viability, T/C",[31],103%
same,"viability, T/C",[32],67.7%
same,"viability, T/C",[33],74.4%
same,"viability, T/C",[34],82%
same,"viability, T/C",[35],87.9%
same,"viability, T/C",[36],70.8%
CCc1c2c(nc3ccc(O)cc13)-c1cc3c(c(=O)n1C2)COC(=O)[C@]3(O)CC + Nc1ccc(C#CCN(C(=O)Cc2ncc(C(F)(F)F)cc2C(F)(F)F)c2ccc(F)cc2)nn1,IC50,second compound 0.0316 µM,< 0.00316 µM
same,IC50,second compound 0.1 µM,< 0.00316 µM
same,IC50,second compound 0.316 µM,< 0.00316 µM
same,IC50,second compound 1 µM,< 0.00316 µM
same,IC50,second compound 3.16 µM,< 0.00316 µM
same,IC50,second compound 10 µM,< 0.00316 µM
same,"viability, T/C",[37],27%
same,"viability, T/C",[38],13.4%
same,"viability, T/C",[1],8.88%
same,"viability, T/C",[2],5.83%
same,"viability, T/C",[3],4.85%
same,"viability, T/C",[4],1.91%
same,"viability, T/C",[39],23.6%
same,"viability, T/C",[40],11.1%
same,"viability, T/C",[7],7.44%
same,"viability, T/C",[8],6.7%
same,"viability, T/C",[9],7.41%
same,"viability, T/C",[10],2.23%
same,"viability, T/C",[41],29.8%
same,"viability, T/C",[42],10.9%
same,"viability, T/C",[13],8.12%
same,"viability, T/C",[14],7.25%
same,"viability, T/C",[15],6.69%
same,"viability, T/C",[16],2.59%
same,"viability, T/C",[43],20.8%
same,"viability, T/C",[44],12.1%
same,"viability, T/C",[19],6.5%
same,"viability, T/C",[20],9.5%
same,"viability, T/C",[21],5.03%
same,"viability, T/C",[22],2.07%
same,"viability, T/C",[45],26.3%
same,"viability, T/C",[46],16.2%
same,"viability, T/C",[25],8.04%
same,"viability, T/C",[26],6.61%
same,"viability, T/C",[27],6.79%
same,"viability, T/C",[28],1.91%
same,"viability, T/C",[47],28%
same,"viability, T/C",[48],14.1%
same,"viability, T/C",[31],5.91%
same,"viability, T/C",[32],7.41%
same,"viability, T/C",[33],8.18%
same,"viability, T/C",[34],2.64%
Cn1ncnc1[C@H]1c2n[nH]c(=O)c3cc(F)cc(c23)N[C@@H]1c1ccc(F)cc1 + Nc1ccc(C#CCN(C(=O)Cc2ncc(C(F)(F)F)cc2C(F)(F)F)c2ccc(F)cc2)nn1,IC50,second compound 0.0316 µM,> 0.1 µM
same,IC50,second compound 0.1 µM,> 0.1 µM
same,IC50,second compound 0.316 µM,> 0.1 µM
same,IC50,second compound 1 µM,> 0.1 µM
same,IC50,second compound 3.16 µM,> 0.1 µM
same,IC50,second compound 10 µM,> 0.1 µM
same,"viability, T/C","second compound 0.0316 µM, first compound 0.000316 µM",98.5%
same,"viability, T/C","second compound 0.0316 µM, first compound 0.001 µM",99.3%
same,"viability, T/C",[37],79.2%
same,"viability, T/C",[38],91.6%
same,"viability, T/C",[1],86.8%
same,"viability, T/C",[2],54.3%
same,"viability, T/C","second compound 0.1 µM, first compound 0.000316 µM",101%
same,"viability, T/C","second compound 0.1 µM, first compound 0.001 µM",71.5%
same,"viability, T/C",[39],69%
same,"viability, T/C",[40],93.8%
same,"viability, T/C",[7],59.2%
same,"viability, T/C",[8],65.9%
same,"viability, T/C","second compound 0.316 µM, first compound 0.000316 µM",110%
same,"viability, T/C","second compound 0.316 µM, first compound 0.001 µM",48.7%
same,"viability, T/C",[41],92.3%
same,"viability, T/C",[42],70.8%
same,"viability, T/C",[13],77.3%
same,"viability, T/C",[14],51%
same,"viability, T/C","second compound 1 µM, first compound 0.000316 µM",65.3%
same,"viability, T/C","second compound 1 µM, first compound 0.001 µM",93%
same,"viability, T/C",[43],71.5%
same,"viability, T/C",[44],72.4%
same,"viability, T/C",[19],59.2%
same,"viability, T/C",[20],55%
same,"viability, T/C","second compound 3.16 µM, first compound 0.000316 µM",116%
same,"viability, T/C","second compound 3.16 µM, first compound 0.001 µM",69.4%
same,"viability, T/C",[45],74.5%
same,"viability, T/C",[46],62%
same,"viability, T/C",[25],68.6%
same,"viability, T/C",[26],79.7%
same,"viability, T/C","second compound 10 µM, first compound 0.000316 µM",77.7%
same,"viability, T/C","second compound 10 µM, first compound 0.001 µM",91%
same,"viability, T/C",[47],87.3%
same,"viability, T/C",[48],87%
same,"viability, T/C",[31],67.7%
same,"viability, T/C",[32],57.2%
